# How the values were obtained:
# Assay type in all cases: cell-based
# [1] = molecular target: T1, SCD5 (Homo sapiens, UniProt Q86SK9); assay: Growth inhibition of humanized yeast strain expressing SCD5 as sole desaturase; settings: for half-maximal inhibitory concentration (IC50): SCD5 humanized strain, FIG. 6
# T1 construct: host or cells: S. cerevisiae ole1Δ strain (W303 pdr1Δ pdr3Δ background), plasmid pRS316 with TDH3 promoter and CYC1 terminator
# T1 sequence (Q86SK9 1-330): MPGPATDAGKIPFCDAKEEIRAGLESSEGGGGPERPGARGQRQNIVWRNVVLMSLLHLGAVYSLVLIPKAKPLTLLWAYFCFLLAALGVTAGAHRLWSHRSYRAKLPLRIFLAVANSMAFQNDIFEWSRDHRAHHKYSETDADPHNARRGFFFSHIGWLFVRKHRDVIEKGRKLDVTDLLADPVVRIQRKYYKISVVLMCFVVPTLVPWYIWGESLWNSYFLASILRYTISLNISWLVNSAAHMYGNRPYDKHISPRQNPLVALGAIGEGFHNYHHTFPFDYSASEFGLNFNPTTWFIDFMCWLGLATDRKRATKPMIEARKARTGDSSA
# Summary of the method: (§1)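 Yeast ole1Δ strain (W303 pdr1Δ pdr3Δ background) carrying plasmid-borne Ole1, SCD1 or SCD5 as sole desaturase was grown in uracil-lacking media, pre-cultured in raffinose for 6 h, then seeded in galactose medium with compound in DMSO. Growth was read as OD600 after 30° C. incubation: 24 h for Ole1, 40 h for SCD1/SCD5.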
# [2] = molecular target: T2, Ole1 (Saccharomyces cerevisiae, UniProt P21147); assay: Growth inhibition of yeast strain expressing Ole1 as sole desaturase; settings: for growth of yeast expressing OLE1 in presence of inhibitor: FIG. 6; for IC50 / OLE1 % Max Inhibition: yeast strain expressing Ole1 as sole desaturase
# T2 construct: expressed in transfected cells; host or cells: S. cerevisiae ole1Δ strain (W303 pdr1Δ pdr3Δ background), plasmid pRS316 with TDH3 promoter and CYC1 terminator
# T2 sequence (P21147 1-510): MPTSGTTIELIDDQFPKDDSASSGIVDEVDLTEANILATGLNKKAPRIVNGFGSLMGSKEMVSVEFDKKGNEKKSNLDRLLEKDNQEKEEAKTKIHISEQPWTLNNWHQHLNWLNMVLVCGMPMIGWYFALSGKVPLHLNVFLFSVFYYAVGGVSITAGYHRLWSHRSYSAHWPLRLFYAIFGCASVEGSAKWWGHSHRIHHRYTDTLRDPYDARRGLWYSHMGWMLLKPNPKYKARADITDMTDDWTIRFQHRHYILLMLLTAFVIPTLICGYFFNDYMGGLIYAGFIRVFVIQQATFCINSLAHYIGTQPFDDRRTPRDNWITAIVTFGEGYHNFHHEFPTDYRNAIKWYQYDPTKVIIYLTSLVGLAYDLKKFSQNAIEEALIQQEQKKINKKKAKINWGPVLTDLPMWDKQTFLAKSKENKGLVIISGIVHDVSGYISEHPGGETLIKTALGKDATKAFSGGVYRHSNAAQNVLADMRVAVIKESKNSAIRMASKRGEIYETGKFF
# Protocol: Strain oleΔ (yeast ole1 deletion mutant) was constructed by deleting OLE1 with NAT-MX6 in BY4741, amplifying the deletion cassette from the genomic DNA of the resulting strain with primers flanking the ORF by 1000 bp upstream and downstream, transforming the resulting deletion cassette into W303 pdr1Δ pdr3Δ, and plating transformants on YPD media containing G418 (200 μg/mL) and nourseothricin ([…]) with 0.01% TWEEN®-20 and 0.5 mM oleic and palmitoleic acids.
# The coding sequence of yeast OLE1 was also cloned into this plasmid). These clones were then transformed into the ole1Δ strain and plated on CSM-Ura media (CSM lacking uracil) with 2% glucose (w/v) and independent colonies were isolated and amplified.
# All compound profiling experiments were performed using the same basic protocol. Different genetic backgrounds (e.g., gene deletions) or conditions (e.g., addition of oleic and palmitoleic acid) were replaced as indicated below.
# Yeast were cultured using standard techniques in complete synthetic media (CSM) and yeast nitrogen base supplemented with 2% (w/v) carbon source (glucose, raffinose, or galactose) to regulate the expression of the toxic disease protein. An initial starter culture was inoculated in 3 mL CSM-Glucose media and incubated overnight in a 30° C. shaker incubator (225 rpm). Saturated morning cultures were then diluted 1:20 in fresh CSM-Raffinose media and grown for 6 h to an OD600 (optical density) of ˜0.4-0.8 at 30° C. with shaking.
# Compound administration was performed in two separate steps. First, 15 μL of CSM-Galactose (induces expression of toxic protein) was dispensed into clear 384 well assay plates using a MULTIDROP™ Combi reagent dispenser. […] The cultures described above were then diluted to a 2× concentration (0.03 and 0.08 for alpha-synuclein and ApoE, final ODsoo of 0.015 and 0.04) in CSM-Galactose. For wild-type and Ole1/SCD1/SCD5 plasmid-containing strains, the 2× cell density was 0.02. […] For 96-well assays (FIGS. 1A and 1B), compound dilutions in DMSO were generated in 96 well plates and 1 μL was manually pipetted into 96 well clear bottom assay plates.
# For experiments using a plasmid-borne copy of Ole1, SCD1, or SCD5 (FIGS. 3B, 6, and 7), media lacking uracil (SX-Ura, where X is glucose, raffinose, or galactose), was used for all steps of the compound profiling protocol to ensure its maintenance throughout the assay.
# After yeast delivery, assay plates were incubated under humidified conditions at 30° C. for 24 to 40 h. ApoE4 rescue experiments were stopped at 24 h, aSyn experiments at 40 h, Ole1 at 24 h, and SCD1/SCD5 at 40 h. The growth of yeast was monitored by reading the ODsoo of each well using a microplate reader (Perkin Elmer EnVision™).
# [3] = molecular target: T3, SCD1 (Homo sapiens, UniProt O00767); assay: Growth inhibition of humanized yeast strain expressing SCD1 as sole desaturase
# T3 construct: host or cells: S. cerevisiae ole1Δ strain (W303 pdr1Δ pdr3Δ background), plasmid pRS316 with TDH3 promoter and CYC1 terminator
# T3 sequence (O00767 1-359): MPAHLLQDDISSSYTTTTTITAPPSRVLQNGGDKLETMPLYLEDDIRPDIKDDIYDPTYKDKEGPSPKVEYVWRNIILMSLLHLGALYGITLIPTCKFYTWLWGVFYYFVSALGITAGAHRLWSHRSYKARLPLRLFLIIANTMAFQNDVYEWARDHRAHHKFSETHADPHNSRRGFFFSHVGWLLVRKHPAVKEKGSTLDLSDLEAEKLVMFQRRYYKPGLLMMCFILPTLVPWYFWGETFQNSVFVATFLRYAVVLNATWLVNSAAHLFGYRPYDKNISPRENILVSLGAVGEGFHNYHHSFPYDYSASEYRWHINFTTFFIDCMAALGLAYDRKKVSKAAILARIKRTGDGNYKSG
# Summary of the method: as §1
# [4] = humanized yeast strain expressing SCD5
# [5] = humanized yeast strain expressing SCD1
# [6] = yeast strain expressing human SCD5 as sole desaturase, Table 8
# [7] = yeast strain expressing human SCD1 as sole desaturase, Table 8
Structure (SMILES),"IC50 [1, 4] [µM]",IC50 [2] [µM],"IC50 [3, 5] [µM]","SCD5 % Max Inhibition [1, 4] [%]",OLE1 % Max Inhibition [2] [%],other results
"Cc1nnc(-c2ccc(N3CCC(Oc4cc(F)ccc4Cl)CC3)nn2)o1 [CAY10566, reference compound]",–,–,–,–,–,"half-maximal inhibitory concentration (IC50) [1]: low nanomolar; growth of yeast expressing OLE1 in presence of inhibitor [2]: resistant; half-maximal inhibitory concentration (IC50) ([3]; SCD1 humanized strain, FIG. 6): low nanomolar"
O=C(C1CCN(c2nc(-c3ccccc3)no2)CC1)N1CCOCC1 [Compound 5],24.5,> 45,> 45,–,–,–
COc1ccc(-c2noc(C3CCN(C(=O)CNCc4ccccc4)CC3)n2)cc1OC [Compound 30],> 45,> 45,> 45,74.17,100.46,"SCD1 % Max Inhibition [3, 5]: 80.58%"
COc1ccc(-c2noc(C3CCN(C(=O)CN)CC3)n2)cc1OC [Compound 75],30,> 45,> 45,–,–,–
Cc1nn(C)c2cc(-c3noc(C4CCN(C(=O)C5CNC(=O)C5)CC4)n3)ccc12 (stereo not shown) [Compound 126],30,> 45,> 45,79.08,73.29,"SCD1 % Max Inhibition [3, 5]: 69.80%"
CCN(Cc1nc(-c2ccccc2)no1)C(=O)Cc1cccc2ccccc12 [Compound 156],> 45,37.1,> 45,22.37,63.63,"SCD1 % Max Inhibition [3, 5]: 72.58%"
CCN(Cc1nc(-c2ccc(OC)c(OC)c2)no1)C(=O)Cc1cccc2ccccc12 [Compound 157],> 45,> 45,> 45,72.54,91.55,"SCD1 % Max Inhibition [3, 5]: 80.54%"
CCN1C(=O)COc2ccc(-c3nc(C4(c5ccc(OC)cc5)CC4)no3)cc21 [Compound 158],> 45,> 45,> 45,91.96,89.93,"SCD1 % Max Inhibition [3, 5]: 78.34%"
CCN1C(=O)COc2ccc(-c3nc(C4(c5ccccc5)CC4)no3)cc21 [Compound 159],13.9,> 45,38.9,10.25,46.92,"SCD1 % Max Inhibition [3, 5]: 70.17%"
CCN1C(=O)COc2ccc(-c3nc(C(C)c4ccccc4)no3)cc21 (stereo not shown) [Compound 160],24.3,36.2,40.7,28.51,71.55,"SCD1 % Max Inhibition [3, 5]: 63.44%"
CC(C)n1ncc2ccc(-c3noc(C4CCN(C(=O)c5cccc(F)c5)CC4)n3)cc21 [Compound 344],> 45,> 45,–,1.1,7.14,–
CC(C)n1ncc2ccc(-c3noc(C4CCN(C(=O)c5ccccc5Cl)CC4)n3)cc21 [Compound 345],> 45,> 45,–,2.2,6.63,–
CC(C)n1ncc2ccc(-c3noc(C4CCN(C(=O)c5ccccc5)CC4)n3)cc21 [Compound 346],> 45,> 45,–,1.1,12.12,–
O=C(C1CC(=O)N(c2cccc(Cl)c2)C1)N1CCC(c2nc(Cl)no2)CC1 (stereo not shown) [Compound 348],–,> 45,–,59.2,74.78,–
CC(C)n1ncc2ccc(-c3noc(N4CCN(C(=O)OC(C)(C)C)CC4)n3)cc21 [Compound 349],> 45,> 45,–,0.2,84.00,–
N#Cc1cccc(N2CC(C(=O)N3CCC(c4nc(Cl)no4)CC3)CC2=O)c1 (stereo not shown) [Compound 350],–,> 45,–,56.3,71.00,–
O=C(c1ccccc1)N1CCC(c2nc(Cl)no2)CC1 [Compound 351],–,> 45,–,57.3,68.60,–
CC(C)c1ccc(C(=O)N2CCC(c3nc(Cl)no3)CC2)cc1 [Compound 352],> 45,> 45,–,44.5,71.57,–
CC(C)(C)OC(=O)N1CCC(c2noc(-c3cccc(C4CCOC4)n3)n2)CC1 (stereo not shown) [Compound 1189],–,–,–,–,–,"IC50 ([1]; humanized yeast strain, 40 h): 7.72 µM; IC50 ([3]; humanized yeast strain, 40 h): > 45 µM"
CC(C)(C)OC(=O)N1CCC(c2noc(-c3cncc(C4CCOC4)c3)n2)CC1 (stereo not shown) [Compound 1190],–,–,–,–,–,"IC50 ([1]; humanized yeast strain, 40 h): 0.06 µM; IC50 ([3]; humanized yeast strain, 40 h): > 45 µM"
COC(=O)N1CCC(c2noc(-c3cccc(C4CCO4)c3)n2)CC1 (stereo not shown) [Compound 1191],–,–,–,–,–,"IC50 ([1]; humanized yeast strain, 40 h): 1.36 µM; IC50 ([3]; humanized yeast strain, 40 h): > 45 µM"
CC(C)(C)OC(=O)N1CCC(c2noc(-c3cc(C4CCOC4)ccn3)n2)CC1 (stereo not shown) [Compound 1192],–,–,–,–,–,"IC50 ([1]; humanized yeast strain, 40 h): 0.04 µM; IC50 ([3]; humanized yeast strain, 40 h): > 45 µM"
CC1(OC(=O)N2CCC(c3noc(N4CCc5c(cnn5C5COC5)C4)n3)CC2)CC1 [Compound 1193],–,–,–,–,–,"IC50 ([1]; humanized yeast strain, 40 h): > 45 µM; IC50 ([3]; humanized yeast strain, 40 h): > 45 µM"
CC(C)C(=O)N1CCC(c2noc(N3CCc4c(cnn4C4COC4)C3)n2)CC1 [Compound 1194],–,–,–,–,–,"IC50 ([1]; humanized yeast strain, 40 h): > 45 µM; IC50 ([3]; humanized yeast strain, 40 h): > 45 µM"
CC(C)C(=O)N1CCC(c2noc(N3CCc4nn(C5COC5)cc4C3)n2)CC1 [Compound 1195],–,–,–,–,–,"IC50 ([1]; humanized yeast strain, 40 h): > 45 µM; IC50 ([3]; humanized yeast strain, 40 h): > 45 µM"
CC(C)(C)OC(=O)N1CCC(c2cc(-c3cnc4cnn(C5CCOC5)c4c3)on2)CC1 (stereo not shown) [Compound 1233],–,–,–,–,–,"IC50 [1, 6]: 6.54 µM; IC50 [3, 7]: 24.7 µM"
COC(=O)N1CCC(c2noc(-c3ccnc(-c4cnn(C)c4)c3)n2)CC1 [Compound 1265],–,–,–,–,–,"IC50 [1, 6]: 11 µM; IC50 [3, 7]: 13.5 µM"
"O=C(O)Cn1nnc(-c2cc(N3CCC(Oc4cc(F)ccc4Br)CC3)no2)n1 [MK-8245, reference compound]",–,–,–,–,–,half-maximal inhibitory concentration (IC50) [1]: low nanomolar; growth of yeast expressing OLE1 in presence of inhibitor [2]: resistant

# — patent US11873298B2, “Compounds and uses thereof” (JANSSEN PHARMACEUTICA NV, priority 2017, dated 2024)
